The values below come from PubChem BioAssay (NCI).

Some test systems named below: UACC-62 melanoma; NCI-H460 lung; OVCAR-4 ovarian; HOP-92 NSCLC; OVCAR-5 ovarian; T-47D breast; SK-MEL-2 melanoma; U251 CNS; UACC-257 melanoma; RXF 393 renal; OVCAR-8 ovarian; SK-MEL-28 melanoma; HCT-116 colon; CAKI-1 renal; ACHN renal; SR leukemia; SF-539 CNS; RPMI-8226 leukemia; HCT-15 colon; OVCAR-3 ovarian.
Holding throughout (assay): growth of human tumour cells (NCI), 48 h

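Five compound concentrations were applied to cells in 96-well plates for 48 hours; endpoints were derived by simple linear interpolation of the resulting dose-response curve. Definition used: TGI = concentration required for complete inhibition of growth.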

As to `O=C(CN1CCN(Cc2ccccc2)CC1)c1ccc2[nH]c(=O)oc2c1`, the TGI in the assay with UACC-62 melanoma, with NCI-H460 lung, in the assay with OVCAR-4 ovarian, with HOP-92 NSCLC, with OVCAR-5 ovarian and in the assay with T-47D breast was greater than 100 µM throughout. The TGI in the assay with SK-MEL-2 melanoma, in the assay on U251 CNS, in the assay with UACC-257 melanoma, in the assay on RXF 393 renal, in the assay with OVCAR-8 ovarian and in the assay on SK-MEL-28 melanoma was greater than 100 µM in each case. For the same compound, the TGI in the assay with HCT-116 colon, in the assay with CAKI-1 renal, in the assay on ACHN renal, with SR leukemia, with SF-539 CNS and in the assay with RPMI-8226 leukemia was greater than 100 µM throughout. In addition, the TGI with HCT-15 colon and with OVCAR-3 ovarian was greater than 100 µM each time.
For the compound `Nc1cc2c3c(c1)Oc1cc(N)cc4c1C3c1c(cc(N)cc1O4)O2`, the TGI with UACC-62 melanoma was greater than 69.6 µM; in the assay on NCI-H460 lung, greater than 100 µM; with OVCAR-4 ovarian, greater than 100 µM; in the assay on HOP-92 NSCLC, greater than 100 µM; with OVCAR-5 ovarian, greater than 100 µM; in the assay on T-47D breast, greater than 93.2 µM. The TGI is greater than 81.9 µM with SK-MEL-2 melanoma; greater than 100 µM with U251 CNS; greater than 85.1 µM in the assay with UACC-257 melanoma; 29 µM in the assay on RXF 393 renal; 34 µM in the assay on OVCAR-8 ovarian; greater than 100 µM in the assay with SK-MEL-28 melanoma. Besides, the TGI was 75.5 µM in the assay on HCT-116 colon; 36.1 µM in the assay with CAKI-1 renal; greater than 51.3 µM in the assay on ACHN renal; 50 µM in the assay on SR leukemia; 46.2 µM with SF-539 CNS; 52.2 µM with RPMI-8226 leukemia. The TGI in the assay with HCT-15 colon was greater than 31.6 µM; in the assay on OVCAR-3 ovarian it was 51.6 µM.
`O=P1(C(O)/C=C/c2ccccc2)N(Cc2ccccc2)[C@H](c2ccccc2)[C@@H](c2ccccc2)N1Cc1ccccc1` (stereo partly drawn): the TGI was greater than 100 µM in the assay with UACC-62 melanoma; greater than 79.1 µM in the assay on NCI-H460 lung; greater than 100 µM in the assay with OVCAR-4 ovarian; greater than 68.9 µM with HOP-92 NSCLC; greater than 100 µM in the assay with OVCAR-5 ovarian; greater than 100 µM with T-47D breast. The TGI in the assay on SK-MEL-2 melanoma is 41.5 µM; with U251 CNS, greater than 100 µM; in the assay on UACC-257 melanoma, 57.6 µM; in the assay with RXF 393 renal, greater than 100 µM; in the assay with OVCAR-8 ovarian, greater than 55.1 µM; in the assay with SK-MEL-28 melanoma, greater than 100 µM. The TGI was greater than 100 µM in the assay on HCT-116 colon; 99.7 µM in the assay with CAKI-1 renal; greater than 95.4 µM with ACHN renal; 70.7 µM in the assay with SR leukemia; greater than 100 µM in the assay on SF-539 CNS; 30.1 µM in the assay on RPMI-8226 leukemia. The figures for the TGI with HCT-15 colon and in the assay on OVCAR-3 ovarian were greater than 85.3 µM and greater than 93.1 µM, respectively.
For the compound `N#Cc1c(N2CCCC2)nsc1NCc1ccccc1`, the TGI in the assay on UACC-62 melanoma, in the assay with NCI-H460 lung, in the assay with OVCAR-4 ovarian, in the assay with HOP-92 NSCLC, with OVCAR-5 ovarian and in the assay on T-47D breast was greater than 100 µM throughout. Moreover, the TGI in the assay on SK-MEL-2 melanoma, in the assay with U251 CNS, in the assay with UACC-257 melanoma, in the assay with RXF 393 renal, with OVCAR-8 ovarian and in the assay on SK-MEL-28 melanoma was greater than 100 µM in each case. Besides, the TGI in the assay with HCT-116 colon, with CAKI-1 renal, in the assay with ACHN renal, in the assay with SR leukemia, in the assay with SF-539 CNS and with RPMI-8226 leukemia was greater than 100 µM each time. The TGI in the assay with HCT-15 colon and in the assay with OVCAR-3 ovarian was greater than 100 µM each time.
For `O=c1sc2c(s1)SSSSS2`, the TGI in the assay on UACC-62 melanoma, in the assay with NCI-H460 lung, in the assay on OVCAR-4 ovarian, in the assay on HOP-92 NSCLC, with OVCAR-5 ovarian and with T-47D breast was greater than 50 µM in each case. Further, the TGI in the assay on SK-MEL-2 melanoma, in the assay with U251 CNS, in the assay on UACC-257 melanoma, in the assay with RXF 393 renal, in the assay with OVCAR-8 ovarian and in the assay on SK-MEL-28 melanoma was greater than 50 µM in each case. The TGI in the assay on HCT-116 colon, in the assay with CAKI-1 renal, in the assay with ACHN renal, in the assay with SR leukemia, with SF-539 CNS and in the assay on RPMI-8226 leukemia was greater than 50 µM throughout. For the same compound, the TGI with HCT-15 colon and in the assay with OVCAR-3 ovarian was greater than 50 µM each time.
With `CCCCCCCC1C(C)c2c([nH]c3ccccc23)C2C(=O)N(c3ccc(OC)cc3)C(=O)C21` (stereo not drawn), the TGI with UACC-62 melanoma was greater than 10 µM; in the assay with NCI-H460 lung it was 3.62 µM; with OVCAR-4 ovarian it was 5.8 µM; in the assay with HOP-92 NSCLC it was greater than 10 µM; in the assay on OVCAR-5 ovarian it was greater than 10 µM; with T-47D breast it was greater than 10 µM. The TGI with SK-MEL-2 melanoma is greater than 10 µM; with U251 CNS, 3.97 µM; in the assay with UACC-257 melanoma, 7.65 µM; in the assay with RXF 393 renal it was 8.14 µM; in the assay with OVCAR-8 ovarian, 6.02 µM; in the assay on SK-MEL-28 melanoma, greater than 10 µM. Moreover, the TGI is 3.61 µM in the assay on HCT-116 colon; greater than 8.37 µM with CAKI-1 renal; 5.74 µM with ACHN renal; greater than 10 µM in the assay on SR leukemia; greater than 7.09 µM in the assay on SF-539 CNS; greater than 10 µM in the assay on RPMI-8226 leukemia. Moreover, the TGI is greater than 10 µM with HCT-15 colon and 6.71 µM in the assay with OVCAR-3 ovarian.
`O=S(=O)(O)c1c(Cl)cc(O)c2ncccc12`: the TGI with UACC-62 melanoma, in the assay with NCI-H460 lung, in the assay on OVCAR-4 ovarian, in the assay on HOP-92 NSCLC, with OVCAR-5 ovarian and in the assay with T-47D breast was greater than 100 µM each time. In addition, the TGI with SK-MEL-2 melanoma, in the assay with U251 CNS, with UACC-257 melanoma, in the assay on RXF 393 renal, in the assay with OVCAR-8 ovarian and in the assay on SK-MEL-28 melanoma was greater than 100 µM throughout. Besides, the TGI in the assay on HCT-116 colon, in the assay on CAKI-1 renal, with ACHN renal, in the assay on SR leukemia, with SF-539 CNS and in the assay with RPMI-8226 leukemia was greater than 100 µM in each case. Further, the TGI with HCT-15 colon and in the assay with OVCAR-3 ovarian was greater than 100 µM throughout.
As for `C=CCN1CCC(OC(=O)C(O)(C#CC)C2CCCC2)CC1` (stereo not drawn), the TGI with UACC-62 melanoma, in the assay on NCI-H460 lung, in the assay on OVCAR-4 ovarian, in the assay with HOP-92 NSCLC, in the assay on OVCAR-5 ovarian and in the assay on T-47D breast was greater than 100 µM throughout. For the same compound, the TGI in the assay with SK-MEL-2 melanoma, with U251 CNS, with UACC-257 melanoma, with RXF 393 renal, in the assay with OVCAR-8 ovarian and in the assay with SK-MEL-28 melanoma was greater than 100 µM in each case. The TGI in the assay on HCT-116 colon, in the assay on CAKI-1 renal, with ACHN renal, with SR leukemia, in the assay on SF-539 CNS and with RPMI-8226 leukemia was greater than 100 µM each time. Further, the TGI in the assay with HCT-15 colon and with OVCAR-3 ovarian was greater than 100 µM throughout.
Turning to `C=CCOC(=O)N1[C@H]2C#C/C=C\C#C[C@]3(O)C(=O)C[C@H](C)[C@]24O[C@]43C2=CC(=O)C=CC21OC` (stereo partly drawn), the TGI with UACC-62 melanoma was greater than 100 µM; in the assay with NCI-H460 lung, 47.8 µM; in the assay on OVCAR-4 ovarian, 84.2 µM; with HOP-92 NSCLC, greater than 100 µM; in the assay on OVCAR-5 ovarian, greater than 100 µM; in the assay with T-47D breast, greater than 100 µM. Further, the TGI in the assay with SK-MEL-2 melanoma was 66.5 µM; in the assay with U251 CNS it was greater than 100 µM; in the assay on UACC-257 melanoma, 59 µM; with RXF 393 renal, 47.7 µM; with OVCAR-8 ovarian, 47.9 µM; in the assay on SK-MEL-28 melanoma it was greater than 100 µM. For the same compound, the TGI is 44.6 µM with HCT-116 colon; greater than 100 µM in the assay on CAKI-1 renal; 63.6 µM in the assay with ACHN renal; 29.9 µM with SR leukemia; 45.8 µM in the assay on SF-539 CNS; 81.5 µM with RPMI-8226 leukemia. The compound also gave a TGI in the assay on HCT-15 colon greater than 100 µM.
As for `COc1cc(-c2cn(S(=O)(=O)c3ccc(C)cc3)c3ccccc23)nc(-c2cn(S(=O)(=O)c3ccc(C)cc3)c3ccccc23)n1`, the TGI with UACC-62 melanoma was greater than 100 µM; in the assay with NCI-H460 lung it was greater than 100 µM; in the assay on OVCAR-4 ovarian it was greater than 100 µM; in the assay on HOP-92 NSCLC, greater than 60.9 µM; in the assay with OVCAR-5 ovarian it was 19.6 µM; in the assay on T-47D breast, greater than 100 µM. Further, the TGI is greater than 100 µM in the assay with SK-MEL-2 melanoma; 13.8 µM with U251 CNS; greater than 100 µM in the assay with UACC-257 melanoma; greater than 100 µM in the assay with RXF 393 renal; greater than 100 µM in the assay on OVCAR-8 ovarian; greater than 55.7 µM in the assay on SK-MEL-28 melanoma. The TGI in the assay on HCT-116 colon is greater than 33.8 µM; in the assay on CAKI-1 renal, greater than 100 µM; in the assay on ACHN renal, greater than 100 µM; with SR leukemia it was greater than 100 µM; in the assay on SF-539 CNS, 0.592 µM; in the assay on RPMI-8226 leukemia it was greater than 100 µM. In addition, the TGI with HCT-15 colon and in the assay on OVCAR-3 ovarian was greater than 100 µM in each case.
For the compound `CCC(C#N)(c1ccccc1)N(CCc1ccccc1)C(=O)c1ccccc1` (stereo not drawn), the TGI with UACC-62 melanoma was greater than 100 µM; with OVCAR-4 ovarian it was 44 µM; in the assay with HOP-92 NSCLC, 45.2 µM; in the assay on OVCAR-5 ovarian it was greater than 100 µM; in the assay with T-47D breast, greater than 100 µM; in the assay with SK-MEL-2 melanoma it was greater than 100 µM. Also, the TGI with U251 CNS was greater than 100 µM; in the assay with UACC-257 melanoma, greater than 100 µM; with RXF 393 renal, 55.3 µM; in the assay with OVCAR-8 ovarian it was 54.2 µM; in the assay on SK-MEL-28 melanoma, greater than 100 µM; with HCT-116 colon it was greater than 100 µM. Also, the TGI with CAKI-1 renal was greater than 100 µM; in the assay on ACHN renal, greater than 100 µM; with SR leukemia, greater than 100 µM; in the assay on SF-539 CNS, 34.8 µM; in the assay on RPMI-8226 leukemia it was greater than 100 µM; with HCT-15 colon it was greater than 100 µM. This compound also came in with a TGI with OVCAR-3 ovarian greater than 100 µM.
